PMC5958115, “A novel small molecule chaperone of rod opsin and its potential therapy for retinal degeneration” (Nature Communications, 2018)

Legend:
[1] = Metabolic stability in human liver microsomes; type: in vitro ADME; details: 5 µM, NADPH, 37 °C
Experimental: A standard metabolic stability assay was performed in the presence of mouse or human liver microsomes. YC-001 (5 µM) was incubated with the microsomes (0.125 mg mL^−1) resuspended in 0.2 mL of PBS buffer, pH 7.4 composed of 10 mM Na2HPO4, 1.8 mM KH2PO4, 137 mM NaCl, and 2.7 mM KCl. The enzymatic reaction to produce oxidized metabolites was initiated by addition of NADPH (1 mM). Samples were incubated at 37 °C for up to 240 min. Incubation without the cofactor was conducted in parallel to assess NADPH-independent clearance. The reactions were stopped with 0.2 mL of methanol followed by 0.3 mL chloroform. Residual YC-001 was extracted by vigorous shaking. To facilitate phase separation, the samples were spun down for 2 min, 15,000×g. The chloroform fraction was collected, dried down, and the extracted organic compounds were redissolved in 0.2 mL of methanol. To quantify YC-001, the samples were injected onto an Eclipse XDB-C18 column (4.6 × 150 mm, 5 µm) (Agilent Technologies) equilibrated with solvent composed of 30% acetonitrile in water (v/v), and 0.1% formic acid. YC-001 was eluted in a gradient of acetonitrile in water (30–100%) developed within 15 min at a flow rate of 1 mL min^−1, detected at 350 nm, and quantified by correlating peak areas with known quantities of an original synthetic standard. […]

Abca4−/−Rdh8−/− mice = test: Bright light-induced retinal degeneration (SD-OCT, HE staining); type: in vivo, mouse; details: 50 or 200 mg kg^−1 bw i.p. 30 min before 10,000 lux for 30 min; day 7
Experimental: Abca4^−/−Rdh8^−/− [42] mice with a 129 Sv/Ev or C57BL/6 mixed background were used for light-induced retinal degeneration assays. […] Male and female C57BL/6 mice (Jackson Laboratory, Bar Harbor, ME) at 6 weeks of age were used to test the effects of YC-001 treatment on the retinoid cycle and bw as well as to determine parenterally administrated YC-001 entering the eyes. YC-001 was dissolved in DMSO at 80–160 mg mL^−1, and the solution was provided to mice by i.p. injection. All mice were housed and maintained in a 12 h light (≤10 lux)/12 h dark cycle in the Animal Resource Center at the School of Medicine, CWRU. […]
Retinal degeneration was initiated by exposing Abca4^−/−Rdh8^−/− mice for 30 min to white light with an intensity of 10,000 lux (150-W spiral lamp, Hampton Bay, Home Depot, Atlanta, GA USA)[43]. […] Retinal structures were analyzed by SD-OCT seven days after bright light exposure. […]
To assess the effect of YC-001 treatment on Abca4^−/−Rdh8^−/− mice following bright light-induced retinal degeneration, we performed ultrahigh-resolution SD-OCT (Bioptigen, Morrisville, NC) for in vivo imaging of mouse retinas. […] To measure changes to photoreceptors in the retinas challenged with bright light and assess the effect of YC-001 on retinal protection, the thickness of the ONL was measured along the scanned SD-OCT image at 8 points from the nasal to temporal end of the retina. […]

[2] = parameters: method as in PubChem database, CID 2377702; details: ref PubChem database, CID 2377702; cited from earlier work

## O=C1OCC(c2ccc(Cl)s2)=C1c1cccs1 [YC-001]
[1]
  initial clearance in liver microsomes: even higher initial clearance compared to the fast clearance drug, verapamil
Abca4−/−Rdh8−/− mice
  protection of the ONL from light-induced damage: dose-dependent protection of the ONL
[2]
  activity in 8 other bioassays: no known activities
